The values below come from US9242991B2, “Substituted fused heterocycles as c-Met tyrosine kinase inhibitors” (BETTA PHARMACEUTICALS CO., LTD, priority 2010, dated 2016).

Where “and” joins values, the source holds several entries; their conditions need not be identical. Identical values can stand only once.

In data set [1] the target is T1, c-Met phosphorylation (pY1349) in NCI-H460 cells (Homo sapiens, UniProt P08581).
T1 construct: host or cells: NCI-H460
The data set is described as follows: HGF Stimulated Met (pY1349) NCI-H460 Cell-based ELISA. The settings on record: 0.2 μM compound; for Mean of Activity (% Control): mean of replicates; for Counts / Activity (% Control): single replicates; for Activity (% Control): 0.2 µM. On the procedure:
HGF Stimulated Met (pY1349) NCI-H460 Cell-based ELISA NCI-H460 cells (purchased from ATCC) are cultured in RPMI 1640 media (Invitrogen) supplemented with 10% Fetal Bovine Scrum (FBS) and plated (prior to becoming 70% confluent) in 96-well flat-bottom plates at a density of 20,000 cells per well in 80 μL volume. The cells are then incubated overnight in a cell culture incubator (5% CO2, 95% Relative Humidity (RH) and 37° C.) and allowed to attach to the plate. The following morning the cells are washed with 2 volumes of a Reduced Serum Media (RSM) (RPMI 1640 media supplemented with 0.5% FBS). After removal of the last wash, 80 µL of RSM is added to each well of the cell plates. The cell plates are incubated for 2.5 hours in a cell culture incubator, and then dosed with compounds. Compound inhibitors are first solubilized at 10 mM in 100% DMSO and then diluted to 100 μM with 2% DMSO RSM. Subsequently compound serial dilutions (1:3) are prepared over a 100 μM to 0.005 μM range. Cells are dosed with the addition of 20 μL of compound stock to produce a final DMSO concentration of 0.4% and a final compound concentration dose range between 20 and 0.001 μM. After dosing with compounds the cells plates are gently agitated to mix and then allowed to incubate for 30 min in a cell culture incubator. After dose completion, the cells are stimulated with the addition of 20 μL per well of Hepatocyte Growth Factor (HGF) at a final concentration of 100 ng/mL in RSM (all wells except MIN wells are stimulated, MIN wells are dosed with 20 μL RSM). After 10 min incubation in a cell culture incubator, the liquid is removed from the cell plate wells, and the cells are lysed by the addition of 50 μL of ice-cold Meso Scale Discovery® (MSD, Gaithersburg, Md.) IX Lysis Buffer (150 mM NaCl, 20 mM Tris, pH7.5, 1 mM EDTA, 1 mM ethylene glycol tetraacetic acid, and 1% TRITON® X-100) supplemented with Phosphatase I and II and Protease inhibitors (Sigma, St. Louis, Mo.). After lysis at RT for 30 min the lysates are transferred to and captured on a MSD® Multi-Spot 96-well. 4-spot PhosphoMet plate that is BSA-blocked (at 30 mg/mL Block A in IX Tris Wash Buffer) and then washed one time with Tris Wash Buffer. After 2 hours capture (at RT) the lysates are removed from the MSD® plate and the plate is washed with IX Tris Wash Buffer. After blotting, 25 μL of 5 nM Sulfo-Tag Anti-Total Met antibody (detection antibody, MSD® prepared in IX Tris Wash Buffer supplemented with 10 mg/mL BSA and 0.1% Blocker D-R (MSD®)) is added to the wells of the MSD® plate. After 1 hour capture (at RT) the MSD® plate wells are washed with IX Tris Wash Buffer, and then 150 μL of IX Read Buffer T (with surfactant, MSD®) is added. Immediately after the addition of the Read Buffer, the plates are analyzed with a SECTOR 6000 MSD® Imager plate reader. Relative IC50 values are determined using MSD activity units by calculating percent inhibition with respect to on-plate “MIN” and “MAX” controls and then fitting the percent inhibition values and ten-point dose response data to a four-parameter logistic equation. This assay has a Minimum Significant Ratio (MSR) of 2.06.
Background: In an ELISA, binding on a coated surface is turned into a signal by an enzyme label.

T1 sequence (P08581 25-1390): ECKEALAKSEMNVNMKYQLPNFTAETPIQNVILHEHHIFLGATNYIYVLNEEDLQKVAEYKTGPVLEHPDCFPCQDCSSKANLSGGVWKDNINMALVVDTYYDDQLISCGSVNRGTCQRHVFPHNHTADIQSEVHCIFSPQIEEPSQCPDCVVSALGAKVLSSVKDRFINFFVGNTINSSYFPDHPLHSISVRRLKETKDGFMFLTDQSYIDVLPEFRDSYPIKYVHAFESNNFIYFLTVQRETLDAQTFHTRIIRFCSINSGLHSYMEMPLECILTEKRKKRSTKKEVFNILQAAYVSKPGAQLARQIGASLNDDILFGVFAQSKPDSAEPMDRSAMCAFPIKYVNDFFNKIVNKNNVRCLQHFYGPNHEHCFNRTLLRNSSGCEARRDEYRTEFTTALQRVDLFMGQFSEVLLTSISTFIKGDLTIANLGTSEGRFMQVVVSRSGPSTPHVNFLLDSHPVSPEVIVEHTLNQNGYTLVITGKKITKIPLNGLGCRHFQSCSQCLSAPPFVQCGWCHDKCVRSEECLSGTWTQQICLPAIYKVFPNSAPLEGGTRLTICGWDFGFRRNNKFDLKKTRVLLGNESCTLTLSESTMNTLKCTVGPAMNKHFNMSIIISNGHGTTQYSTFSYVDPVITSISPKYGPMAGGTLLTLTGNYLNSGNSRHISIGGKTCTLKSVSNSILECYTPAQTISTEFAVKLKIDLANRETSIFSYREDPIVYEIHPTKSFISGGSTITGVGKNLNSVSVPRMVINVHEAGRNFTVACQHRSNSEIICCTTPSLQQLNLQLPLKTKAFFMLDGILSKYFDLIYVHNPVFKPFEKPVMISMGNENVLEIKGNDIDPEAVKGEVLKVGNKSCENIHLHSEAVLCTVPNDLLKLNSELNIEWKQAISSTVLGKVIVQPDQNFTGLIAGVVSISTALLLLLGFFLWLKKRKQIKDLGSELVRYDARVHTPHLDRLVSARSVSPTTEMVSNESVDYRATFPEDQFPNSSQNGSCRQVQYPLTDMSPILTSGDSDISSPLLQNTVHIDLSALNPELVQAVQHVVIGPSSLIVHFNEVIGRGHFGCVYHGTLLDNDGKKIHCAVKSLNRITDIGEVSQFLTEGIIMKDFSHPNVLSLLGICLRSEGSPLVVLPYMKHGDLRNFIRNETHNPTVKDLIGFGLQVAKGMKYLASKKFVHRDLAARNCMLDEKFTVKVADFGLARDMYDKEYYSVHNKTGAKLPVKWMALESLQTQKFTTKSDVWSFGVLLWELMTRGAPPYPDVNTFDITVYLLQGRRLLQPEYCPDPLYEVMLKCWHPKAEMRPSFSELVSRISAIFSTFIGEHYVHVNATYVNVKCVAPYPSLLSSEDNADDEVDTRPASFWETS

Take `Cn1c(Nc2ccc(F)cc2)ncc(-c2ccc(Oc3ncnc4cc5c(cc34)OCCOCCOCCO5)cn2)c1=O` [Example 6, 2-(4-Fluoro-phenylamino)-5-[5-(7,8,10,11,13,14-hexahydro-6,9,12,15-tetraoxa-1,3-diaza-cyclododeca[b]naphthalen-4-yloxy)-pyridin-2-yl]-3-methyl-3H-pyrimidin-4-one]: in data set [1], the “Mean (Counts − Blanks)” value is given as 29068; the “Mean of Activity (% Control)” value stood at 25 % Control; the Counts is 30847 and 29093; the “Activity (% Control)” value is 29 % Control and 21 % Control.
On to `Cn1c(Nc2ccc(F)cc2)ncc(-c2ccc(Oc3ncnc4cc5c(cc34)OC(F)(F)O5)cn2)c1=O` [Example 8, 5-[5-(2,2-Difluoro-[1,3]dioxolo[4,5-g]quinazolin-8-yloxy)-pyridin-2-yl]-2-(4-fluoro-phenylamino)-3-methyl-3H-pyrimidin-4-one], for which, in data set [1], the “Mean (Counts − Blanks)” value worked out at 28728; the “Mean of Activity (% Control)” value is listed as 24 % Control; the Counts is 30429 and 28830; the “Activity (% Control)” value is 27 % Control and 20 % Control.
For `O=C(Nc1ccc(Oc2ncnc3cc4c(cc23)OCO4)c(F)c1)c1c[nH]cc(-c2ccc(F)cc2)c1=O` [Example 9, 5-(4-Fluoro-phenyl)-4-oxo-1,4-dihydro-pyridine-3-carboxylic acid [4-([1,3]dioxolo[4,5-g]quinazolin-8-yloxy)-3-fluoro-phenyl]-amide], in data set [1], the “Mean (Counts − Blanks)” value was 27649; the “Mean of Activity (% Control)” value came out at 19 % Control; the Counts was 28364 and 28738; the “Activity (% Control)” value was 18 % Control and 20 % Control.
As a reminder, the melting point is the temperature, or range, at which the solid turns liquid. As for `O=C(Nc1ccc(Oc2ccnc3cc4c(cc23)OCCOCCOCCO4)c(F)c1)c1c[nH]cc(-c2ccc(F)cc2)c1=O` [Example 10, 5-(4-Fluoro-phenyl)-4-oxo-1,4-dihydro-pyridine-3-carboxylic acid [3-fluoro-4-(7,8,10,11,13,14-hexahydro-6,9,12,15-tetraoxa-1-aza-cyclododeca[b]naphthalen-4-yloxy)-phenyl]-amide], the melting point was in the range of 188 to 190 °C. In data set [1], the “Mean (Counts − Blanks)” value came out at 28866; the “Mean of Activity (% Control)” value is on record as 25 % Control; the Counts was 30524 and 29012; the “Activity (% Control)” value is 28 % Control and 21 % Control.
Turning to `O=C(Nc1ccc(Oc2ccnc3cc4c(cc23)OCCOCCOCCO4)c(F)c1)c1cccn(-c2ccc(F)cc2)c1=O` [Example 11, 1-(4-Fluoro-phenyl)-2-oxo-1,2-dihydro-pyridine-3-carboxylic acid [3-fluoro-4-(7,8,10,11,13,14-hexahydro-6,9,12,15-tetraoxa-1-aza-cyclododeca[b]naphthalen-4-yloxy)-phenyl]-amide], in data set [1], the “Mean (Counts − Blanks)” value came out at 31407; the “Mean of Activity (% Control)” value is recorded as 35 % Control; the Counts is 32582 and 32035; the “Activity (% Control)” value was 36 % Control and 34 % Control.
Regarding `Cn1c(Nc2ccc(F)cc2)ncc(-c2ccc(Oc3ncnc4cc5c(cc34)OCCCO5)cn2)c1=O` [Example 20, 5-[5-(8,9-Dihydro-7H-6,10-dioxa-1,3-diaza-cyclohepta[b]naphthalen-4-yloxy)-pyridin-2-yl]-2-(4-fluoro-phenylamino)-3-methyl-3H-pyrimidin-4-one], in data set [1], the “Mean (Counts − Blanks)” value worked out at 32073; the “Mean of Activity (% Control)” value was found to be 39 % Control; the Counts is 34234 and 31716; the “Activity (% Control)” value is 44 % Control and 33 % Control.
For the compound `CN1CCOc2cc3ncnc(Oc4ccc(-c5cnc(Nc6ccc(F)cc6)n(C)c5=O)nc4)c3cc2OCC1` [Example 21, 2-(4-Fluoro-phenylamino)-3-methyl-5-[5-(9-methyl-8,9,10,11-tetrahydro-7H-6,12-dioxa-1,3,9-triaza-cyclonona[b]naphthalen-4-yloxy)-pyridin-2-yl]-3H-pyrimidin-4-one], in data set [1], the “Mean (Counts − Blanks)” value is on record as 29384; the “Mean of Activity (% Control)” value is 27 % Control; the Counts was 31741 and 28830; the “Activity (% Control)” value was 33 % Control and 20 % Control.
As for `Cn1c(Nc2ccccc2)ncc(-c2ccc(Oc3ccnc4cc5c(cc34)OC(F)(F)O5)cn2)c1=O` [Example 28, 5-[5-(2,2-Difluoro-[1,3]dioxolo[4,5-g]quinolin-8-yloxy)-pyridin-2-yl]-2-(phenylamino)-3-methyl-3H-pyrimidin-4-one], in data set [1], the “Mean (Counts − Blanks)” value amounted to 30; the “Mean of Activity (% Control)” value was found to be 1 % Control; the Counts was 1070 and 793; the “Activity (% Control)” value is 1 % Control and 0 % Control.
Consider `Cn1c(Nc2ccccc2)ncc(-c2ccc(Oc3ccnc4cc5c(cc34)OCCOCCOCCOCCOCCO5)cn2)c1=O` [Example 31, 5-[5-(2,5,8,11,14,17-Hexaoxa-21-aza-tricyclo[16.8.0.020,25]hexacosa-1(18), 19,21,23,25-pentaen-24-yloxy)-pyridin-2-yl]-3-methyl-2-phenylamino-3 H-pyrimidin-4-one], for which, in data set [1], the “Mean (Counts − Blanks)” value was found to be 17936; the “Mean of Activity (% Control)” value came to 37 % Control; the Counts was 20248 and 17427; the “Activity (% Control)” value is 43 % Control and 31 % Control.
